The text below walks through data of US20260091011A1, “HYDROALCOHOLIC SINGLE PHASE GEL COMPOSITIONS FOR TOPICAL DELIVERY OF DICLOFENAC” (HALEON CH SARL, priority 2022, published 2026).

The data set in a line: Cumulative skin permeation study in a 3 ml permeation cell (Example 2). The class given is in vitro ADME, human. Particulars: 2% w/w diclofenac sodium hydroalcoholic gels. As to the method:
In a cumulative skin permeation study in a 3 ml permeation cell, cumulative permeation through a skin sample from a human donor was studied. Five different compositions were tested in six replicates. Cumulative permeation was measured at 4 hours (hrs) and at 24 hrs after application of a dose. However, cumulative permeation at 4 hrs was below the measurement threshold in this experiment and thus is not reported for Example 2. All formulations were applied in a dose of 6 microlitres onto skin sample of a defined surface area. The following formulations were studied: […]

On to Polysorbate 20 [Kolliphor PS 20], for which the “effect of non-ionic emulsifier on cumulative permeation of diclofenac at 24 hrs” value is “permeation retarding effect”. “macrogol cetostearyl ether 20 [Kolliphor CS 20]”: the “effect of non-ionic emulsifier on cumulative permeation of diclofenac at 24 hrs” value is recorded as “more pronounced”.
